# Experimental data taken from ChEMBL document CHEMBL1201862, “PubChem BioAssay data set” (2004).
# The source made the active and inactive calls.
# Tests used:
# Type in all cases: functional
# [1] = biological target: T1, Sentrin-specific protease 8 (Homo sapiens, UniProt Q96LD8);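 further: luminescence read-out of SENP8 inhibition, dose-response confirmation following an ultra-high-throughput screen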
# T1 sequence (Q96LD8 whole entry): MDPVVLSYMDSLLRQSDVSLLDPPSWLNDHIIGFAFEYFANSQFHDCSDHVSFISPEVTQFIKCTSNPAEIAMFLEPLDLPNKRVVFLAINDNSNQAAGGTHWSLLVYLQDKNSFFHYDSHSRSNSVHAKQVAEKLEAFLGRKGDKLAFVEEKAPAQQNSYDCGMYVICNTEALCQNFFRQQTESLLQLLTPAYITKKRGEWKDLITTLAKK
# [2] = biological target: T2, Sentrin-specific protease 7 (Homo sapiens, UniProt Q9BQF6);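 further: Luminescence-based dose-response confirmation of ultra-high-throughput screening hits, measuring inhibition of SENP7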
# T2 sequence (Q9BQF6 whole entry): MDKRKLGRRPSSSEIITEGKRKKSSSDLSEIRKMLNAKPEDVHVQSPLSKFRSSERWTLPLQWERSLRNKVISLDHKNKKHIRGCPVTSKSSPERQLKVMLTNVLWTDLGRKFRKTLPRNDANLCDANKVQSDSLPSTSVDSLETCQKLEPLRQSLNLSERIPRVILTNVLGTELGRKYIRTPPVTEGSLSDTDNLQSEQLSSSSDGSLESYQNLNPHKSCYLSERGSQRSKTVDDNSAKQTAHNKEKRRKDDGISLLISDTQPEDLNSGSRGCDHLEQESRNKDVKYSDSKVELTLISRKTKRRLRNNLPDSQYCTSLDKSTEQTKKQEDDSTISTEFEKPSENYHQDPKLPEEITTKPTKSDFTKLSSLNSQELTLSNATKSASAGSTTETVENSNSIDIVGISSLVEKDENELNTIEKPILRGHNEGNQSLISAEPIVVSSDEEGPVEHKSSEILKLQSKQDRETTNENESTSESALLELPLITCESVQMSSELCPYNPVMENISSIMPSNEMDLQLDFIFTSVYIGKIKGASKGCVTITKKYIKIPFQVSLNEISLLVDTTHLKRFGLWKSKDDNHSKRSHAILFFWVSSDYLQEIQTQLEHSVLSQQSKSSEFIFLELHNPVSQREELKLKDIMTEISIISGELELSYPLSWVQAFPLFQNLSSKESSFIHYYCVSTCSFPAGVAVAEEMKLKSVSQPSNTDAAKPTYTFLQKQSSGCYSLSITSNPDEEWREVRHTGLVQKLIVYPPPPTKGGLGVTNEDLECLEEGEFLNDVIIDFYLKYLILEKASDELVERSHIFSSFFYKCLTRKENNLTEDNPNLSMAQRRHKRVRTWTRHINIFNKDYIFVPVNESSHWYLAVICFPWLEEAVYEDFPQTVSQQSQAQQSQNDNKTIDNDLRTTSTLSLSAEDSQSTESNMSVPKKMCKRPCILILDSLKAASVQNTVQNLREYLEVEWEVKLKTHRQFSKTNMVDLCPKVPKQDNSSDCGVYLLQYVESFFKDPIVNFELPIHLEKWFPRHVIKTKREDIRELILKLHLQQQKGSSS
# [3] = biological target: Mitogen-activated protein kinase kinase kinase kinase 4 (Homo sapiens, UniProt O95819)
# Sequence of Mitogen-activated protein kinase kinase kinase kinase 4 (O95819 whole entry): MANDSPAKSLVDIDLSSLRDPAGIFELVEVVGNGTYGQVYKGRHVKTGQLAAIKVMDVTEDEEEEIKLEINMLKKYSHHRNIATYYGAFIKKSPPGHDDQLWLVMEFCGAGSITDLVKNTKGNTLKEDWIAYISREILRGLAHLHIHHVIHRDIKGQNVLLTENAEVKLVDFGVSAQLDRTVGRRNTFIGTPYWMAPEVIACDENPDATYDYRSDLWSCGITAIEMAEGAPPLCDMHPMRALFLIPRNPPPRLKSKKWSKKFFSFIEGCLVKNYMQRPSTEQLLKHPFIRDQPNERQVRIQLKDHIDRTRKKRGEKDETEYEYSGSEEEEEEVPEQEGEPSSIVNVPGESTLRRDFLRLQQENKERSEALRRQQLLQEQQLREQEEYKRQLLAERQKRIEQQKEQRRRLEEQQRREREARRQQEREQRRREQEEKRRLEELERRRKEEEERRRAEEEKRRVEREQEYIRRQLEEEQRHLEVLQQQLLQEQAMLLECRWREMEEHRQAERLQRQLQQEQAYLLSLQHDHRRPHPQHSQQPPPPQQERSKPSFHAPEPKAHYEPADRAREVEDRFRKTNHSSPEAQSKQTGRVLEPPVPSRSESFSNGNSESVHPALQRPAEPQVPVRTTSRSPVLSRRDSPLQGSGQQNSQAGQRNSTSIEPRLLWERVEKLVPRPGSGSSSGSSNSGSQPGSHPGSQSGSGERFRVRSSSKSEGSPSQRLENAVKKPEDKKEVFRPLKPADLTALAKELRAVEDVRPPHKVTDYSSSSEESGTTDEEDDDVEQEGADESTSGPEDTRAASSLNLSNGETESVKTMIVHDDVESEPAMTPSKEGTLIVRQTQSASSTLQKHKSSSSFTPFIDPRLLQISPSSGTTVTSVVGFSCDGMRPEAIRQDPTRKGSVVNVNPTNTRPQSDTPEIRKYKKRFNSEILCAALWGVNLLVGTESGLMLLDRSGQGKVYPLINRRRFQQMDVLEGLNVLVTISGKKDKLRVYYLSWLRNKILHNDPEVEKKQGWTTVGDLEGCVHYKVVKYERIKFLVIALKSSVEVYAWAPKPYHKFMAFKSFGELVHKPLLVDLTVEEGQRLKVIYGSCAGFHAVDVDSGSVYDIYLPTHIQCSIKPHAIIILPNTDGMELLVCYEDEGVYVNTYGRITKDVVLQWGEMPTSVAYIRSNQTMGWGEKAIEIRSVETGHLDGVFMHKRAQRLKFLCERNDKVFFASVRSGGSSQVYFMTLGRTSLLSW
# Activin receptor type-1 = Activin receptor type-1 (Homo sapiens, UniProt Q04771); test: Navigating the Kinome. Panel member name: ACVR1
# Sequence of Activin receptor type-1 (Q04771 whole entry): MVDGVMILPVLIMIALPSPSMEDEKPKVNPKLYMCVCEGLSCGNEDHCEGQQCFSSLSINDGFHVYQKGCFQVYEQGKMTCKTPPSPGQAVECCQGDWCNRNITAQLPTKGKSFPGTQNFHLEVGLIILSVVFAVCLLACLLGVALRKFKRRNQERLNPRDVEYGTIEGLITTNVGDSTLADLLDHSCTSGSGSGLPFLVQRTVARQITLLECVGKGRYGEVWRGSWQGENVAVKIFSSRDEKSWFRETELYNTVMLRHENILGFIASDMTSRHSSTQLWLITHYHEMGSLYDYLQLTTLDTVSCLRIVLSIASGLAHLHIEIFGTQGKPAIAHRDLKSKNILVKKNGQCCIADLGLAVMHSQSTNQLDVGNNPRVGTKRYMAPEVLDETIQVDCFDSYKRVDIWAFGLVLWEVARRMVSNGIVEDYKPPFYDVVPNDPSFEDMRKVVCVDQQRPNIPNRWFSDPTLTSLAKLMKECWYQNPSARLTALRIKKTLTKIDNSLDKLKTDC
# [4] = biological target: T3, cAMP-dependent protein kinase catalytic subunit PRKX (Homo sapiens, UniProt P51817)
# T3 sequence (P51817 whole entry): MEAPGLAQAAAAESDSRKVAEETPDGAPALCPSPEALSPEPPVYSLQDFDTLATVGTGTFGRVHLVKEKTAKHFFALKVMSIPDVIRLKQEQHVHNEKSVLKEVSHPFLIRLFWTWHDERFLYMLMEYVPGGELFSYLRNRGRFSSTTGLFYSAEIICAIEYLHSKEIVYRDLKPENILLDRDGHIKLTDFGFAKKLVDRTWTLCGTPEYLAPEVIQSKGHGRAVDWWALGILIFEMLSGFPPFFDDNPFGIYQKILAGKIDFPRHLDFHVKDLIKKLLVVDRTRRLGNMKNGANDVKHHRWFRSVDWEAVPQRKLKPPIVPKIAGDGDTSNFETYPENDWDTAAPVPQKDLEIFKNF
# [5] = biological target: cAMP-dependent protein kinase catalytic subunit alpha (Homo sapiens, UniProt P17612)
# [6] = biological target: Insulin-like growth factor 1 receptor (Homo sapiens, UniProt P08069); test: Navigating the Kinome. Panel member name: IGF1R
# Sequence of Insulin-like growth factor 1 receptor (P08069 31-736 limits assumed): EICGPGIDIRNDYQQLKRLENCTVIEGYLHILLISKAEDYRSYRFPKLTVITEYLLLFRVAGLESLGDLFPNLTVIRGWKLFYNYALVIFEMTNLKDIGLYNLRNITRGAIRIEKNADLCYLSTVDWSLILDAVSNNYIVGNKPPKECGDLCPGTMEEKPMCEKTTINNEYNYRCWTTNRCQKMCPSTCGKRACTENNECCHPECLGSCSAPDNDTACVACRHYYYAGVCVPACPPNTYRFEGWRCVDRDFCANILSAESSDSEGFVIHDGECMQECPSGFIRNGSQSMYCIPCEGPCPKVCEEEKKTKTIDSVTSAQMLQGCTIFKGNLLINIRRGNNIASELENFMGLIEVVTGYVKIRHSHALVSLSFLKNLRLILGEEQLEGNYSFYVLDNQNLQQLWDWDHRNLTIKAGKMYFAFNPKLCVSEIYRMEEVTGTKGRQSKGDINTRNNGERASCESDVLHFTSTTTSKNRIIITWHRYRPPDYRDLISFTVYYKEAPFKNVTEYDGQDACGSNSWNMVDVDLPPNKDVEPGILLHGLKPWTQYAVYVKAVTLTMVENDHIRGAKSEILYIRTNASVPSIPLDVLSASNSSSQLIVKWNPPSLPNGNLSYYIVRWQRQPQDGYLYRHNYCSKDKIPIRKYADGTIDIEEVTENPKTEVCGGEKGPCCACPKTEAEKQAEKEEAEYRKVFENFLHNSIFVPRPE
# Sequence of Insulin-like growth factor 1 receptor (P08069 741-1367 limits assumed): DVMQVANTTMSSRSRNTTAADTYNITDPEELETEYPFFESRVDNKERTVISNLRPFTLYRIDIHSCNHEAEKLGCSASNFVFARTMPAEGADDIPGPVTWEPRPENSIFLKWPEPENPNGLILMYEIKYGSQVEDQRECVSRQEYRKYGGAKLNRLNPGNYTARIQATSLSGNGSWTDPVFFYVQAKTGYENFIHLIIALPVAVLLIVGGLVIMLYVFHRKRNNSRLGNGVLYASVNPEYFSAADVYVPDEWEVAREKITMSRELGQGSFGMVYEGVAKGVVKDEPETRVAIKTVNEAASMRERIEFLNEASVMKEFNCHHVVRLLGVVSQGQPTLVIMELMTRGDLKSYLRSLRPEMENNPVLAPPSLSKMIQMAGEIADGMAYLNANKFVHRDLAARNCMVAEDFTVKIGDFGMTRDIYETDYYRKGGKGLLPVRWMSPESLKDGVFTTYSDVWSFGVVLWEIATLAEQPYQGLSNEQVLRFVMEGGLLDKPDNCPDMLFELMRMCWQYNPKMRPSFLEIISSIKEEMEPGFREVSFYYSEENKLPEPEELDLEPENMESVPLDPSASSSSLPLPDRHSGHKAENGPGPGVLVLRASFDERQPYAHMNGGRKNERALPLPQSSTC
# [7] = biological target: Tyrosine-protein kinase JAK2 (Homo sapiens, UniProt O60674);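 further: JAK2 tested as one member of a kinase panel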
# Sequence of Tyrosine-protein kinase JAK2 (O60674 whole entry, canonical isoform): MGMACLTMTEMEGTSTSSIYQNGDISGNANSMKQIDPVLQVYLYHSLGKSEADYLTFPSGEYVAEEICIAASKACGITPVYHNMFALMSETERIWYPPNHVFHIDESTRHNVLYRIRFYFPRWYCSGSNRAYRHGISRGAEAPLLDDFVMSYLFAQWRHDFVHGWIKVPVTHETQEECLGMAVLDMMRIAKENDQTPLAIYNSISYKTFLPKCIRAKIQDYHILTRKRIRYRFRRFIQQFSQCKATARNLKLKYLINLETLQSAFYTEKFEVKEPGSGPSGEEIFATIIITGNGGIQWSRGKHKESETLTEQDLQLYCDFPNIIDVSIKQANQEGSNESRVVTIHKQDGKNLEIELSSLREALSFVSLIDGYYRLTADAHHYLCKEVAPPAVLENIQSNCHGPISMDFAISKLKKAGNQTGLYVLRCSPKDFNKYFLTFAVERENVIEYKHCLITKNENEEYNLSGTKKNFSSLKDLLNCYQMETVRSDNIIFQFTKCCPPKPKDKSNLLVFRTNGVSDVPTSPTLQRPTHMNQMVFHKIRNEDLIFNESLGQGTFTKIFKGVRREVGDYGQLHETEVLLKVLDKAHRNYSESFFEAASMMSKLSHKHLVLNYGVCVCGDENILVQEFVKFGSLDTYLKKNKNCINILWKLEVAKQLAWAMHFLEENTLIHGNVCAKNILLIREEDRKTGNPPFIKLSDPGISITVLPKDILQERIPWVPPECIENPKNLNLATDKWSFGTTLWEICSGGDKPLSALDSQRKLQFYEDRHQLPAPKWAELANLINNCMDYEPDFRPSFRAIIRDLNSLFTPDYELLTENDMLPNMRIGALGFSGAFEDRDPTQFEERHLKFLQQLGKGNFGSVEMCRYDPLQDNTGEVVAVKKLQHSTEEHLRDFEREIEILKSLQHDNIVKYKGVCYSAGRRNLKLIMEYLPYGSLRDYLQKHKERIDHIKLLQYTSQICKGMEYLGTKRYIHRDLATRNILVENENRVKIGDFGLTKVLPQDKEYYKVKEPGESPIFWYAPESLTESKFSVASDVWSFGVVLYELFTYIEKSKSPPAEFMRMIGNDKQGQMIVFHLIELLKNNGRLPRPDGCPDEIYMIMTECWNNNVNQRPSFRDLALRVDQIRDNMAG
# [8] = biological target: Casein kinase I isoform alpha (Homo sapiens, UniProt P48729)
# Sequence of Casein kinase I isoform alpha (P48729 whole entry, canonical isoform): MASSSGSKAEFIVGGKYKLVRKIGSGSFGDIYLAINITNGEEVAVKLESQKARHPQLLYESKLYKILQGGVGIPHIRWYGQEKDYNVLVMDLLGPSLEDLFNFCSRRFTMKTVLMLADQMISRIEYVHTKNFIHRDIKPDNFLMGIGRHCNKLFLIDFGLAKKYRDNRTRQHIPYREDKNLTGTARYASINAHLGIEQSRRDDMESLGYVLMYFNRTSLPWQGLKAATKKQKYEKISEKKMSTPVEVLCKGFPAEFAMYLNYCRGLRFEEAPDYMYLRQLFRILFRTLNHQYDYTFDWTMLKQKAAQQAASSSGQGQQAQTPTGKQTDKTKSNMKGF
Ki [3],Ki (Activin receptor type-1),Ki [4],Compound,IC50 [1],IC50 [2],Ki [5],Ki [6],Ki [7],Ki [8]
,,,Cc1ccc(NC2=C(NCCO)C(=O)c3ccccc3C2=O)cc1,9120 nM (active),11600 nM (active),,,,
,,,CC(/C=C1\SC(=S)N(NS(=O)(=O)c2ccc(C)cc2)C1=O)=C\c1ccccc1,3940 nM (active),43900 nM (active),,,,
> 5010 nM (inactive),3160 nM (active),1000 nM (active),Cc1ccc(C)c(NC(=O)c2cc(-c3ccco3)nc3ccccc23)c1,,,,,,
398 nM (active),631 nM (active),398 nM (active),COc1ccc(C2=NNc3cccc4c(OC)ccc2c34)cc1OC,,,> 1260 nM (inactive),> 2510 nM (inactive),1000 nM (active),12.6 nM (active)

Compound,Ki [3],Ki (Activin receptor type-1),Ki [4],IC50 [1],IC50 [2],Ki [5],Ki [6],Ki [7],Ki [8]
CN1CCC(c2c(O)cc(O)c3c(=O)cc(-c4ccccc4Cl)oc23)C(O)C1 (centres undefined),,,> 3160 nM (inactive),,,> 3980 nM (inactive),> 2000 nM (inactive),> 2000 nM (inactive),> 5010 nM (inactive)
